Reference: paper PMC7719179, “Small molecule inhibition of Dynamin-dependent endocytosis targets multiple niche signals and impairs leukemia stem cells” (Nature Communications, 2020)
Values joined by “and” are separate entries in the source; they are usually repeats but may differ in a detail not shown here. Equal entries are not always repeated.

Legend:
[1] = test system: pSTAT5 and pERK in AML01-307 and AML18 patient-derived cells; experiment: pSTAT5 and pERK in AML01-307 and AML18 cells harvested from treated recipients; type: in vivo, human
Experimental: Phosphoflow analysis was performed as previously described. Briefly, 2 × 10^6 cells stained for surface markers were subsequently resuspended into PBS 1× + 4% v/v paraformaldehyde and incubated for 10 min at 4 °C for fixation. Fixed cells were washed twice using PBS 1×, then resuspended in pre-chilled at −20 °C Perm Buffer III (BD Pharmingen) and incubated 30 min at 4 °C for permeabilization. Cells were washed twice using PBS 1× and incubated overnight at 4 °C in PBS 1× + 2% v/v fetal calf serum (FCS) with Cell Signalling purified antibodies (Genesearch Pty Ltd, Arundel QLD, Australia) against pSTAT5 (Tyr694; #9359), phospho-p38 MAPK (Thr180/Tyr182; #4511), phospho-p44/42 (Erk1/2; #9102), phospho-S6 (Ser235/236; #4856) and phospho-Akt (Ser473; #9271) or isotype control. For intracellular HES1 detection, cells stained for surface markers were subsequently fixed and permeabilized using the BD Cytofix/Cytoperm^TM Kit and incubated overnight at 4 °C in PBS 1× + 2% v/v FCS with a purified antibody against HES1 (D6PU; #11988, Cell Signalling) or isotype control. After staining with primary antibodies for phosphoflow or intracellular detection, cells were incubated in permeabilization buffer with donkey Alexa Fluor 488-conjugated anti-rabbit secondary antibody (A-21206, lot #1910751, Molecular Probes, Invitrogen) or goat Alexa Fluor 546-conjugated anti-rabbit secondary antibody (A-11035, lot #1904467, Molecular Probes, Invitrogen) for 1 h on ice, and washed twice in PBS 1×. Fluorescence-activated cell sorting (FACS) analysis was performed using LSRII and LSR Fortessa cytometers, following the gating strategies described in Supplementary Fig. 11. Cell sorting was performed with a FACSAria or BD Influx.
Patient-derived xenograft models were established as previously described[97],[98]. […] For transplantation assays, 10^6 splenocytes harvested from successfully engrafted primary human ETP-ALL or T-ALL xenografts were injected into nonobese diabetic/severe combined immunodeficient (NOD.Cg-Prkdc^scid, also termed NOD/SCID) or NOD/SCID/Il2rg^tm1wjl/SzJ (NSG) mice[99]. Moreover, 1.5 × 10^6 cells splenocytes harvested from successfully engrafted patient-derived AML xenografts were injected into nonobese diabetic/severe immunodeficient (NOD.Cg-Rag1^tm1MomIl2rg^tm1wjl/SzJ, also termed NRG) mice expressing human IL-3, human GM-CSF and human SCF from the SGM3 triple transgene (NRGS)[100]. Engraftment into recipients was monitored by FACS analysis of peripheral blood as previously described. […] The in vivo efficacy of Dynole 34-2 was assessed 24 h after the last injection by FACS analysis and immunohistochemistry as described in Supplementary Methods. […]
assessed by flow cytometry. […]

[2] = test system: IL-7R at the surface of Ba/F3-IL7R cells; experiment: Surface expression of IL-7R on Ba/F3-IL7R cells (flow cytometry); type: cell-based, murine; conditions: replicates
Experimental: Ba/F3 cells (kindly provided by a person from The Walter and Eliza Hall Institute of Medical Research) were infected with pMIG-R1/Il7r retroviral supernatants produced in 293T cells, and transduced cells were sorted with a BD Influx (BD Australia) and selected by culture in medium supplemented with 5 ng/mL rmIL-7 (#217-17, Pepro Tech, Rocky Hill NJ, USA) for 7 days. Ba/F3 cells stably expressing Il7r (Ba/F3-IL7R) were infected with TxTCPVIR-Stat5-CA retroviral supernatants produced in 293T. Cell sorting was performed with a BD Influx and transduced cells were treated with doxycycline for 48 h to induce the expression of the Stat5-CA-T2A-mCherry fusion protein.
Flow cytometry analyses were performed as previously described[10],[86] on single-cell suspensions stained using BD Pharmingen antibodies (BD Australia, North Ryde NSW, Australia) against mouse CD4 (RM4-5), CD8 (53-6.7), CD25 (PC61.5), CD44 (IM7), CD45.1 (A20), CD45.2 (104), Thy1.2 (53-2.1; #561616), TCRβ (H57-597), CD117 (ACK45), CD135 (A2F10.1), CD150 (TC15-12F12.2; #562373), B220 (RA3-6B2; #563708), CD3 (145-2C11; #563004), CD19 (ID3; #557655), Gr-1 (RB6-8C5; #563299 and #565033), CD11b (M1/70; #563015 and #560455), Ter119 (Ter119; #565523 and #557909), Sca-1 (D7; #558160) and an eBioscience antibody (eBioscience, Invitrogen) against mouse NOTCH1 (22E5). DN3 populations and IL-7R were stained using BioLegend antibodies (Australian Biosearch, Balcatta WA, Australia) against mouse CD28 (E18) and CD127 (A7R34), respectively. Apoptosis was measured using an antibody against AnnexinV (#556420, BD Australia) and the […] Sytox Blue (BD Australia) following the manufacturer’s protocol.
For in vitro IL-7 stimulation assays, cells were starved in serum-free DMEM at 37 °C, then incubated with either vehicle or Dynole 34-2 or Ruxolitinib (INCB018424; #S1378, Selleckchem), or DAPT (GSI-IX; #S2215, Selleckchem) resuspended in DMSO for 1 h. Thymocytes were subsequently stimulated with 25 ng/mL IL-7 at 37 °C for 20 min and washed twice using cold PBS 1×. Cells were incubated with 25 ng/mL Rat IgG (Sigma-Aldrich Pty Ltd, Castle Hill NSW, Australia) and with a PE-conjugated antibody for detection of IL-7R (CD127) for 1 h on ice, as described in the FACS analysis section. PE-conjugated isotype was used as negative control. Cells were washed twice, fixed and phosphoflow analysis performed as described in the FACS analysis section. The analysis was performed in triplicate and the mean fluorescence intensity (MFI) observed without stimulation was reported as 100%.

Compound: CCCCCCCCNC(=O)C(C#N)=Cc1cn(CCCN(C)C)c2ccccc12 [Dynole 34-2, 2-Cyano-N-octyl-3-(1-(3-dimethylaminopropyl)-1H-indol-3-yl)-acrylamide]
- pERK (MFI) in human CD45+ cells ([1]; PDX AML01-307): 2273 MFI and 2265 MFI and 2049 MFI
- pSTAT5 (MFI) in human CD45+ cells ([1]; PDX AML01-307): 8952 MFI and 11167 MFI and 9167 MFI
- pERK (MFI) in human CD45+ cells ([1]; PDX AML18): 5026 MFI and 5676 MFI and 5643 MFI and 5242 MFI and 5439 MFI and 6959 MFI
- pSTAT5 (MFI) in human CD45+ cells ([1]; PDX AML18): 4926 MFI and 5695 MFI and 4653 MFI
- IL-7R (MFI) ([2]; +IL-7, Dynole 34-2 0.2 µM): 6459 MFI and 6071 MFI and 5354 MFI and 5835 MFI and 6042 MFI and 5962 MFI
- IL-7R (MFI) ([2]; +IL-7, Dynole 34-2 1.0 µM): 6945 MFI and 7094 MFI and 7005 MFI and 6255 MFI and 6778 MFI and 5501 MFI
- IL-7R (MFI) ([2]; +IL-7, Dynole 34-2 5.0 µM): 8484 MFI and 8092 MFI and 6662 MFI and 7158 MFI and 8274 MFI and 7535 MFI
- IL-7R (MFI) ([2]; +IL-7, Dynole 34-2 10.0 µM): 7753 MFI and 8175 MFI and 8231 MFI and 7570 MFI
- IL-7R (MFI) ([2]; +IL-7, Dynole 34-2 25.0 µM): 9215 MFI and 8603 MFI and 7481 MFI and 8221 MFI and 8215 MFI and 7582 MFI
